Laboratory results as given in patent US12281098B2, “Five-membered-fused six-membered compound, preparation method, pharmaceutical composition and use” (HANGZHOU POLYMED BIOPHARMACEUTICALS, INC., priority 2021, dated 2025).
pIC50: −log10 of the molar value. Read-outs that look alike come from different tables or passages of the source.

How the values were obtained:
[1] = target: T1, IRAK4 protein in THP-1 cells (Homo sapiens, UniProt Q9NWZ3); assay: IRAK4 protein degradation in THP-1 induced by PROTAC (Western Blot); type: cell-based; conditions: GAPDH internal reference
T1 construct: endogenous in cells; host or cells: THP-1
T1 sequence (Q9NWZ3 1-460): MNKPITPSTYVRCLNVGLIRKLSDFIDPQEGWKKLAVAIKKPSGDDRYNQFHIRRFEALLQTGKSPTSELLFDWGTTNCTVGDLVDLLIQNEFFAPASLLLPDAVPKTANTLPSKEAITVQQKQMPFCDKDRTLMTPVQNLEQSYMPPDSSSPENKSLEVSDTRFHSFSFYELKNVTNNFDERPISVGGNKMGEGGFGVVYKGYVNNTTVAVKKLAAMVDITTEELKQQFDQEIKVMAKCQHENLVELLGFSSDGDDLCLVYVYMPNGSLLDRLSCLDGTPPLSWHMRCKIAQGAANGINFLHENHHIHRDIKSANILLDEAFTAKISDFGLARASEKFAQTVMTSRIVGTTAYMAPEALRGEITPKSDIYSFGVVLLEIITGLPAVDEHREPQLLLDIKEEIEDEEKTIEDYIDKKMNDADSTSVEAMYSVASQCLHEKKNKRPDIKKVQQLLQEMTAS
Method: 3.1. Based on the experimental method of immunoblot, i.e., Western Blot, THP-1 cell samples processed by gel electrophoresis were stained with specific antibodies, and the degradation activity of the compounds on the IRAK4 protein in THP-1 cells was determined by analyzing the position of the staining and the depth of the staining. The detection concentrations of the compounds were 0 μM, 0.3 μM, 1 μM, and 3 μM, and the compounds were used to treat the cells for 8 hours, 16 hours, 24 hours, and 48 hours. In this case, glyceraldehyde-3-phosphate dehydrogenase (GAPDH) was the internal reference protein for the assay.
THP-1 cells were spread into a 6-well plate at a density of 1.5×10^6 cells per mL, and incubated in a 37° C. cell culture incubator with 5% CO2 for 2 hours. The compound was diluted with DMSO to 0.6 mM, 0.2 mM, and 0.06 mM, respectively. 10 μL of compound solution was added to the corresponding wells, and the plate was incubated in the incubator for 16 hours, 24 hours, and 48 hours, respectively. The drug-treated THP-1 cells were collected from the wells, added with 120 μL of RIPA lysis buffer containing protease inhibitor, phosphatase inhibitor cocktail 2, and phosphatase inhibitor cocktail 3, and lysed on wet ice for 30 minutes. The cell lysate was then centrifuged at low temperature and high speed for 5 minutes, and the supernatant was collected. Referring to the instructions in the Pierce™ BCA Protein Assay Kit, the cell samples were tested for protein concentration.
The samples were adjusted to the same concentration using lysis buffer and NuPAGE® LDS sample buffer containing 1 M DTT. The samples were heated at 95° C. for 5 minutes and centrifuged at low temperature and high speed. 20 μL of prepared protein sample and 4 μL of PageRuler Prestained Protein Ladder were added to the gel wells. The mixture was electrophoresed at a voltage of 80 V for 0.5 hours, and then electrophoresed for another 1.5 hours after the voltage was adjusted to 120 V. The gel was removed and proteins in the gel were transferred to IBlot™ 2 Transfer Stack at a voltage of 20V. After successful membrane transfer, the bands were cut out at 65 kDa to 40 kDa and 40 kDa to 30 kDa, respectively. The membrane was blocked with 5% non-fat milk at room temperature for 1 hour. The membrane was washed three times with 1×TBST, and incubated with IRAK4 antibody working solution at 4° C. overnight. The IRAK4 antibody working solution was discarded, and the membrane was washed three times with 1×TBST. After the corresponding membrane was incubated with Goat Anti-Rabbit IgG H&L (HRP) working solution and Goat Anti-Mouse IgG H&L (HRP) working solution at room temperature for 1 hour, the antibody working solutions were discarded, and the membrane was washed three times with 1×TBST. Referring to the instructions in the SuperSignal™ West Femto Maximum Sensitivity Substrate Kit, the reagents in the kit were mixed in equal volume proportions to prepare a luminescent mixture, and the membrane was incubated for 1 minute and removed for exposure.
WB assay: The results 24 hours after administration at 1 μM were divided into estimated <25%, <50%, <75%, and <100%.

THP-1 cells = assay: LPS-stimulated cytokine (TNFα) release in THP-1; type: cell-based, Human; conditions: LPS 100 ng/mL, 5 hours, TNF-α ELISA, read-out: Inhibition IC50 (nM) of cytokines (TNFα) against LPS-stimulated inflammatory responses in THP-1 cells
Method: THP-1 cells were cultured in suspension in RPMI 1640 complete medium (containing 10% serum, 1% penicillin-streptomycin, and 55 μM β-mercaptoethanol). THP-1 cells were collected, centrifuged at 350×g at room temperature to discard the supernatant, and resuspended in RPMI 1640 complete medium to a concentration of 2×10^6 cells per mL. THP-1 cells were spread into a 96-well plate at a concentration of 2×10^5 cells per well, and different concentrations of the compound to be tested were added thereto. The plate was incubated in a 37° C. cell culture incubator with 5% CO2 for 60 minutes. 50 μL of LPS at a final concentration of 100 ng/mL was added to a 96-well plate, and incubated in a 37° C. cell culture incubator for 5 hours. The cell culture plate was then taken out from the incubator, and centrifuged at 350×g at low temperature for 5 minutes to collect 150 μL of the supernatant. Referring to the instructions in the Human TNF-α Duoset ELISA Kit, the level of TNF-α in the cell culture supernatant was detected.
Data on the inhibitory activity of cytokines (TNFα) against LPS-stimulated inflammatory responses in THP-1 cells are shown in Tables 3 and 4.

IRAK4 kinase = target: T2, IRAK4 kinase (Homo sapiens, UniProt Q9NWZ3); assay: Compound inhibition of IRAK4 kinase activity (fluorescence microfluidic mobility shift assay); type: biochemical; conditions: 10 μM ATP, 6 nM IRAK4 kinase
T2 construct: purchased Carna 09-145
T2 sequence (Q9NWZ3 1-460): T1 sequence (Q9NWZ3 1-460)
Method: Based on the experimental method of fluorescence microfluidic mobility shift assay, the IC50 value of the compound for competitive binding of ATP to IRAK4 kinase was determined. The initial detection concentration of the compound was 10 μM, which was 4-fold serially diluted to 0.38 nM and assayed in duplicate. In this case, commercially available staurosporine was the standard control for the assay.
1) IRAK4 kinase was dissolved in kinase buffer (50 mM HEPES pH 7.5, 10 mM MgCl2, 2 mM DDT, and 0.01% Brij-35) at a final concentration of 6 nM.
2) The substrate peptide FAM-P8 and ATP were dissolved in the above kinase buffer, and the final concentrations of the substrate peptide FAM-P8 and ATP for IRAK4 were 3 μM and 10 μM, respectively.
3) Compound dilution: The compound was first diluted to 50 μM, and then 4-fold serially diluted with DMSO. In this case, the solution without compound and kinase served as the blank control, corresponding to the “minimum value” shown below; the solution without compound but containing kinase, adenosine 5′-triphosphate disodium salt hydrate, DMSO, and the buffer served as the positive control, corresponding to the “maximum value” shown below.
4) Kinase reaction and termination: 10 μL of the kinase buffer was added to a 384-well plate containing 5 μL of the compound to be tested, and the mixture was incubated at room temperature for 10 minutes; another 10 μL of buffer containing the substrate peptide and adenosine 5′-triphosphate disodium salt hydrate was added to the 384-well plate, and after incubation at 28° C. for 1 hour, 25 μL of termination solution (100 mM HEPES pH 7.5, 50 mM EDTA, 0.2% Coating Reagent #3, and 0.015% Brij-35) was added to each well to terminate the reaction.
5) Data reading: CaliperEZ Reader II instrument was used to read the conversion rate data. Setting conditions: downstream voltage as −500 V, upstream voltage as −2250 V, base pressure as −0.5 PSI, and screening pressure as −1.2 PSI.
6) Data calculation: the conversion rate data was copied from CaliperEZ Reader II, and the conversion rate was converted into inhibition rate data. The calculation formula is as follows: Inhibition percentage (%)=(maximum value−conversion rate)/(maximum value−minimum value)*100%
IC50 values were fitted with XLFit excel add-in version 5.4.0.8.

With `CC(C)(O)c1cc2nn(CCN3CCN(CC(=O)N4CCC5(CC4)CN(c4cccc6c4C(=O)N(C4CCC(=O)NC4=O)C6=O)C5)C3=O)cc2cc1NC(=O)c1cccc(C(F)(F)F)n1` (stereo not drawn) [III-5] as the compound, how does the “Western Blot results 24 hours after administration at a drug concentration of 1 μM” value (from here on “Western Blot results 24 hours”) ([1]; Table 6, estimated bins) read?
The value was less than 25%.

And the IC50 (THP-1 cells; Homo sapiens, THP-1, Table 4)?
The IC50 was 1000 to 10000 nM.

And the pIC50 (IRAK4 kinase; Table 1)?
The pIC50 was 6.00 to 7.00.

And the pIC50 (IRAK4 kinase; Table 2)?
The pIC50 was 6.00 to 7.00.

For `Cc1ncsc1-c1ccc([C@H](C)NC(=O)[C@@H]2C[C@@H](O)CN2C(=O)[C@@H](NC(=O)C2CCC3(CC2)CCN(C(=O)CN2CCN(CCn4cc5cc(NC(=O)c6cccc(C(F)(F)F)n6)c(C(C)(C)O)cc5n4)C2=O)CC3)C(C)(C)C)cc1` [III-17], which “Western Blot results 24 hours” value ([1]; Table 5, estimated bins) is on record?
The value was less than 25%.

What about the “Western Blot results 24 hours” value ([1]; Table 6, estimated bins) of the same compound?
The value was less than 25%.

And the IC50 (THP-1 cells; Homo sapiens, THP-1, Table 3)?
The IC50 was 1000 to 10000 nM.

What about the IC50 (THP-1 cells; Table 4) of the same compound?
Its IC50 is 1000 to 10000 nM.

What about the pIC50 (IRAK4 kinase; Table 1) of the same compound?
Its pIC50 is 6.00 to 7.00.

What about the pIC50 (IRAK4 kinase; Table 2) of the same compound?
Its pIC50 is 6.00 to 7.00.

What does the source list for `Cc1ncsc1-c1ccc([C@H](C)NC(=O)[C@@H]2C[C@@H](O)CN2C(=O)[C@@H](NC(=O)C2CC3(CCN(C(=O)CN4CCN(CCn5cc6cc(NC(=O)c7cccc(C(F)(F)F)n7)c(C(C)(C)O)cc6n5)C4=O)CC3)C2)C(C)(C)C)cc1` [III-16]?
Western Blot results 24 hours after administration at a drug concentration of 1 μM ([1]; Table 5, estimated bins): <50%; IC50 (THP-1 cells; Homo sapiens, THP-1, Table 3): 1000 to 10000 nM; IC50 (THP-1 cells; Table 4): 1000 to 10000 nM; pIC50 (IRAK4 kinase; Table 1): 6.00 to 7.00; pIC50 (IRAK4 kinase; Table 2): 6.00 to 7.00
